# Test results taken from US20160312261A1, “ENZYMATIC PRODUCTION OF CYTOSINIC NUCLEOSIDE ANALOGUES” (PLASMIA BIOTECH, S.L., priority 2015, published 2016).
# Test: Thermal stability of Capecitabine on heating
# Type: physicochemical
# Conditions: heating at 90° C. during 10 hours at neutral pH
# Experimental: The one step process for the preparation of Capecitabine disclosed in WO 2011/104540 suffers from important loses of the final product. Capecitabine suffers from thermal instability at high temperatures, and after heating the product at 90° C. during 10 hours at neutral pH, up to 40% of the product is lost. On the contrary, the enzymatic process of the invention runs at milder conditions, using water as solvent and furnishing yields higher than 70%.
smiles,measurement,value
"CCCCCOC(=O)Nc1nc(=O)n([C@@H]2O[C@H](C)[C@@H](O)[C@H]2O)cc1F [Capecitabine, N^4-pentyloxycarbonyl-5′-deoxy-5-fluorocytidine]",product lost after heating (thermal instability),up to 40%
